Laboratory results: patent publication US11649396B2, “Associative copolymers with hydrophobic quaternized (meth)acrylamide and (meth)acrylic acid derivatives” (BASF SE, priority 2018, dated 2023)

Test: Solubility tests of monomer 1 with auxiliary surfactants (additives) in the monomer solution
Format: physicochemical
Conditions: recipe 27 mol % sodium acrylate, 72.9 mol % acrylamide, 0.1 mol % 1; for Result (solubility of monomer 1 with additive): additive 2-20 eq relative to 1
Description: In order to solubilize monomer 1 the monomer was first dissolved in ethanol and then added to the monomer solution.
These tests were done in first instance with 0.1 mol % of 1.

Row | SMILES | Result (solubility of monomer 1 with additive) | Result (solubility of monomer 1 without additive) (no additive)
1 | CCCCCCCCCCCCCCC(O)C[N+](C)(C)CCO.[Cl-] (stereo not shown) [Dehyquart E-CA, (2-hydroxyethyl)(2-hydroxyhexadecyl)dimethylammonium chloride] | Not soluble** | 
2 | CCCCCCCCCCCCN(CCC(=O)[O-])CCC(=O)O.[Na+] [Deriphat 160 C, Sodium-N-lauryl-R-iminodipropionate] | Not soluble** | 
3 | C=C(C)C(=O)OCCC[N+](C)(C)CCCCCCCCCCCC [Monomer 1] |  | Not soluble**
4 | CCCCCCCCCCCCCC[N+](C)(C)C.[Br-] [Monomer C14TAB, Tetradecyltrimethylammonium bromide, reference compound] | Not soluble** | 
